“And” between values parts separate entries of the source, which are not always exact repeats. Equal entries are not always repeated. Marks after values point to notes of the source that are not given here. Blank lines part the entries; values can stand above or below the compound they belong to.
Tests used:
clinical = conditions: human, in vivo
Excerpt: Secondary objectives are to evaluate preliminary anti-tumor activity and looking at overall response rate (ORR), duration of response (DOR), progression-free survival (PFS), disease control rate (DCR), pharmacokinetics (PK) and pharmacodynamics (PD).

HBRX1298 xenograft = assay: ER+ primary breast cancer model HBRX1298 in NSG mice; assay type: in vivo, mouse; conditions: Day 63
Experimental: HBRX1298 tumors were established in NSG female mice by injection of a tumor brei into the inguinal mammary fat pad area. Mice were implanted with 0.72 mg estradiol/90-day release pellets several days prior to cell implantation. […] The 80 mg/kg QD dose inhibited tumor volumes close to the extent observed in mice with estradiol pellet removal (% ΔT/ΔC=32% and 21%, respectively; p<0.05).

[1] = tested on: ER target genes GREB1 and PGR; assay: qRT-PCR of ER target genes in MCF-7 WT cells
MCF-7 xenograft [2] = assay: Orthotopic MCF-7 xenograft model in NSG mice; assay type: in vivo, mouse; conditions: for Tumor response in words: LSZ102 20 mg/kg QD, tamoxifen 60 mg/kg, fulvestrant 5 mg/mouse
Experimental: Mice were supplemented with estradiol (0.72 mg estradiol/90-day release pellets) to further support MCF-7 tumor growth several days prior to cell implantation.

[3] = Phase I/Ib study, safety and tolerability; assay type: in vivo, human
Excerpt: (§1) Eligible patients, ≥18 years old, have histologically confirmed ER+ breast cancer that has progressed after endocrine therapy for metastatic or locally advanced disease or recurrence while on, or within 12 months of the end of adjuvant treatment with an aromatase inhibitor. […] As of Jul. […] As of Jul. 23, 2018, 13 patients continued ongoing treatment and 3 patients discontinued due to progressive disease.

[4] = tested on: ER regulated transcripts GREB1 and PGR; assay: GREB1 and PGR mRNA in MCF-7 tumors after final dose; assay type: in vivo, mouse; conditions: higher dose levels, tumors collected 24 hours after final treatment on day 61, normalized to B2M
Excerpt: Data is plotted for individual animals and is normalized to expression of beta-2 microglobulin (B2M).

[5] = tested on: MCF-7 parental (ER wildtype) cells; assay: cells; conditions: Homo sapiens, MCF7, 168 h, read-out: MCF-7 proliferation Ave IC50, ESR1 WT
[6] = tested on: advanced or metastatic ER+ breast cancer; assay: Phase I/Ib study, anti-tumor activity; assay type: in vivo, human
Excerpt: as §1

MCF-7 xenograft [7] = assay: LSZ102 with alpelisib in orthotopic MCF-7 breast cancer model in mice; assay type: in vivo, mouse; conditions: Day 62
MCF-7 xenograft [8] = assay: Dose fractionation study in mice with MCF-7 xenografts; assay type: in vivo, mouse; conditions: for Tumor response ΔT/ΔC / Tumor response Regression: Day 61
ERα = biological target: T1, ERα (Homo sapiens, UniProt P03372); conditions: MCF-7 parental cells, 24 hr treatment
T1 sequence (P03372 1-595): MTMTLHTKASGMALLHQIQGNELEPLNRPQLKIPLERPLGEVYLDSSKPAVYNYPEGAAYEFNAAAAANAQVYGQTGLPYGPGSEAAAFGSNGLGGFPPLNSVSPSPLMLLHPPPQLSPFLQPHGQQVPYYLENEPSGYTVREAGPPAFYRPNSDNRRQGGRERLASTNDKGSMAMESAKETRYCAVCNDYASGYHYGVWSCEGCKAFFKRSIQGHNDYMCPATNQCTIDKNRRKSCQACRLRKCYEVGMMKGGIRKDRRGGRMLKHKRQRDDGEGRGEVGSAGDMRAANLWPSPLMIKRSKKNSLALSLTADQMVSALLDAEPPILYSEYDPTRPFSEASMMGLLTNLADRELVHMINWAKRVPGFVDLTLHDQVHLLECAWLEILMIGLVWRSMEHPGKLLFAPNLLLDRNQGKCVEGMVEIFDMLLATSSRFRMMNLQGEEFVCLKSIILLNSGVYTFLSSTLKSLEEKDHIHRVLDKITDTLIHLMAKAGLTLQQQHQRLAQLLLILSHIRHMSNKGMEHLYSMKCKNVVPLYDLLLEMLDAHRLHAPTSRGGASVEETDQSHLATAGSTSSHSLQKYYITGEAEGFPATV

[9] = All Arm A treatment period patients (N = 73)
[10] = LSZ102 single agent arm (n = 74)
[11] = All LSZ102 single agent arm patients, evaluable n = 72
[12] = 60 mg/kg PO QD x 5 days x QWeek, Day 48

Increase in exposure (AUC) with high fat, high calorie meal compared to fasted (clinical): ~2 fold
Tmax (clinical; po): 2 to 3 h
half-life (clinical; po): 3.1 to 5.6 h
SMILES: CC(F)(F)c1cc(F)ccc1-c1sc2cc(O)ccc2c1Oc1ccc(/C=C/C(=O)O)cc1 [LSZ102, (E)-3-(4-((2-(2-(1,1-difluoroethyl)-4-fluorophenyl)-6-hydroxybenzo[b]thiophen-3-yl)oxy)phenyl)acrylic acid]
Exposure versus dose (clinical; po): dose-proportional increases in LSZ102 exposure
Tumor response ΔT/ΔC (HBRX1298 xenograft; 20 mg/kg PO QD): 45* %
Tumor response ΔT/ΔC (HBRX1298 xenograft; 80 mg/kg PO QD): 32%
ESR1 mRNA levels [1]: not significantly reduced
mRNA expression of GREB1 and PGR [1]: dose response inhibition
Tumor response ΔT/ΔC (MCF-7 xenograft [2]; 1 mg/kg PO QD, Day 48): 56%
Tumor response ΔT/ΔC (MCF-7 xenograft [2]; 3 mg/kg PO QD, Day 48): 51%
Tumor response ΔT/ΔC (MCF-7 xenograft [2]; 10 mg/kg PO QD, Day 48): 25%
Tumor response ΔT/ΔC (MCF-7 xenograft [2]; 20 mg/kg PO QD, Day 48): 2.4% and 2* %
Tumor response in words (MCF-7 xenograft [2]): tumor stasis was achieved and maintained for 48 days
DLT alanine aminotransferase increase, number of patients ([3]; 450 mg QD with food group): one
DLT aspartate aminotransferase increase, number of patients ([3]; 450 mg QD with food group): one
DLT vomiting, number of patients ([3]; 600 mg QD fasted group): one
DLT diarrhea, number of patients ([3]; 900 mg QD fasted group): two
Constipation, G1 [3, 9]: 7 (9.6) n (%)
Constipation, G2 [3, 9]: 1 (1.4) n (%)
Constipation, G3 [3, 9]: 0 n (%)
Decrease appetite, G1 [3, 9]: 11 (15.1) n (%)
Decrease appetite, G2 [3, 9]: 2 (2.7) n (%)
Decrease appetite, G3 [3, 9]: 0 n (%)
Diarrhea, G1 [3, 9]: 25 (34.2) n (%)
Diarrhea, G2 [3, 9]: 11 (15.1) n (%)
Diarrhea, G3 [3, 9]: 3 (4.1) n (%)
Fatigue, G1 [3, 9]: 5 (6.8) n (%)
Fatigue, G2 [3, 9]: 3 (4.1) n (%)
Fatigue, G3 [3, 9]: 0 n (%)
Nausea, G1 [3, 9]: 32 (43.8) n (%)
Nausea, G2 [3, 9]: 10 (13.7) n (%)
Nausea, G3 [3, 9]: 2 (2.7) n (%)
Suspected related AEs, Total, G1 [3, 9]: 38 (52.1) n (%)
Suspected related AEs, Total, G2 [3, 9]: 20 (27.4) n (%)
Suspected related AEs, Total, G3 [3, 9]: 7 (9.6) n (%)
Vomiting, G1 [3, 9]: 14 (19.2) n (%)
Vomiting, G2 [3, 9]: 4 (5.5) n (%)
Vomiting, G3 [3, 9]: 1 (1.4) n (%)
Discontinuation due to adverse event [3, 10]: 2 (2.7) n (%)
Tolerability ([3]; oral single agent, doses up to 600 mg QD and up to 300 mg BID): well tolerated
Drug-related diarrhea, any grade ([3]; single agent Arm A): 53.4%
Drug-related nausea, any grade ([3]; single agent Arm A): 60.2%
Drug-related vomiting, any grade ([3]; single agent Arm A): 26.1%
Drug-related Grade 3 vomiting ([3]; single agent Arm A, 1 patient): 1.4%
Drug-related Grade 3 nausea ([3]; single agent Arm A, 2 patients): 2.7%
Drug-related Grade 3 diarrhea ([3]; single agent Arm A, 3 patients): 4.1%
Dose limiting toxicities (DLTs), patients ([3]; single agent, all dose groups, four patients): 5.9%
Patients requiring dose reduction due to AEs ([3]; single agent, all gastrointestinal toxicities): seven
Inhibition of GREB1 and PGR mRNA levels in tumors [4]: stronger inhibition
IC50 [5]: 5.2 nM
Complete response (CR) [6, 11]: 0 n (%)
Disease control rate (DCR) [6, 11]: 27 (37.5%) n (%)
Non-CR/Non-PD [6, 11]: 7 (9.7) n (%)
Overall response rate (ORR) [6, 11]: 1 (1.4) n (%)
Partial response (PR) [6, 11]: 1 (1.4) n (%)
Progressive disease (PD) [6, 11]: 40 (55.6) n (%)
Response unknown [6, 11]: 6 (8.3) n (%)
Discontinuation due to progressive disease [6, 10]: 59 (79.7) n (%)
Disease control rate ([6]; single-agent LSZ102): 37.5%
Tumor response ΔT/ΔC (MCF-7 xenograft [7]; LSZ102 10 mg/kg QD PO, 10 mg/kg): 13%
Tumor response ΔT/ΔC (MCF-7 xenograft [8]; 5 mg/kg PO BID): 11* %
Tumor response ΔT/ΔC (MCF-7 xenograft [8]; 10 mg/kg PO BID): −1* %
Tumor response ΔT/ΔC (MCF-7 xenograft [8]; 10 mg/kg PO QD): 16* %
Tumor response Regression (MCF-7 xenograft [8]; 20 mg/kg PO QD): 5* %
Tumor response ΔT/ΔC (MCF-7 xenograft [8]; 20 mg/kg PO QD): −2* %
Tumor response Regression (MCF-7 xenograft [8]; 40 mg/kg PO BID): 21* %
Tumor response ΔT/ΔC (MCF-7 xenograft [8]; 40 mg/kg PO BID): −8* %
Tumor response Regression (MCF-7 xenograft [8]; 80 mg/kg PO QD): 31* %
Tumor response ΔT/ΔC (MCF-7 xenograft [8]; 80 mg/kg PO QD): −11* %
Efficacy of QD dosing versus split-dose BID dosing (MCF-7 xenograft [8]; MCF-7 xenografts, FIG. 8A): equivalent efficacy

SMILES: CC/C(=C(\c1ccccc1)c1ccc(OCCN(C)C)cc1)c1ccccc1 [Tamoxifen, reference compound]
Tumor response ΔT/ΔC (HBRX1298 xenograft; 40 mg/kg PO QD): 59%
Tumor response Regression (MCF-7 xenograft [2]; [12]): 1* %
Tumor response ΔT/ΔC (MCF-7 xenograft [2]; [12]): −0.8* %
Tumor response in words (MCF-7 xenograft [2]): tumor stasis
Tumor response Regression (MCF-7 xenograft [8]; 60 mg/kg PO 5QW): 11* %
Tumor response ΔT/ΔC (MCF-7 xenograft [8]; 60 mg/kg PO 5QW): −4* %

ER protein levels (immunoblot) (ERα): significantly reduce ER protein levels
SMILES: C[C@]12CC[C@@H]3c4ccc(O)cc4C[C@@H](CCCCCCCCC[S+]([O-])CCCC(F)(F)C(F)(F)F)[C@H]3[C@@H]1CC[C@@H]2O (some centres unmarked) [Fulvestrant, reference compound]
Tumor response ΔT/ΔC (HBRX1298 xenograft; 5 mg/mouse SC QWeek): 48* %
Tumor response ΔT/ΔC (MCF-7 xenograft [2]; 5 mg/mouse SC QWeek, Day 48): 24* %
Tumor response in words (MCF-7 xenograft [2]): suppression of growth
IC50 [5]: 2.6 nM
Tumor response ΔT/ΔC (MCF-7 xenograft [8]; 5 mg/mouse SC QWeek): 18* %

SMILES: Cc1nc(NC(=O)N2CCC[C@H]2C(N)=O)sc1-c1ccnc(C(C)(C)C(F)(F)F)c1 [BYL719, reference compound]
Tumor response ΔT/ΔC (MCF-7 xenograft [7]; BYL719 20 mg/kg QD PO): 38%

— US10695333B2 (NOVARTIS AG, priority 2017, dated 2020)
